pIC50: −log10 of the molar value. “Also recorded” adds a separate entry of the source. Like-named read-outs stand apart in the source and are kept apart here.
Tests used:
[1] = test system: Mouse embryonic stem cells; assay: Effects of statins on cell viability and mitigation of toxicity by nicotinamide riboside (cell counting and MTT assay); settings: for pIC50: read-out: IC50 for statins in the absence of NR, apparently 7 days
[2] = test system: Mouse embryonic stem cells; assay: Cell survival after mms treatment and passage with/without NAR (haemocytometry); format: cell-based; settings: mms 1 mM 3 hrs, NAR 1 mM, counted after two days
Experimental: Mms (200 mM) was added to both flask #A and #B to make final concentration as 1 mM. After 3 hrs incubation, each cell culture (with/without NR treated) is passed to two new flasks with/without 1 mM of NAR. After two days incubation, count the culture survival in each of these 4 new flasks: mms/control media, mms/NAR media; mms+NAR/control media; mms+NAR/NAR media. It was found after mms treatment, the cultured cells are seriously damaged and only have a very low survival after passage. […] Cell counting by haemocytometry was used to determine survival versus cell number (see FIG. 4).

[3] = test system: Mouse embryonic stem cells; assay: Increase of cellular NAD+ levels in cells grown on nicotinamide riboside (NAR) enriched medium; format: cell-based
Experimental: Mouse embryonic stem cells were plated onto cell culture flasks (250 mL, 75 cm^2) and grown to 50% confluence in 48 hours after passage. At 48 hours 2 flasks were set aside as controls and 2 flasks were used to determine effect of NAR on NAD+ biosynthesis. Cells were treated with 1M HClO4, and a specific amount of 180-NAM ([…]) and ^18O-NAD+. Samples were fractionated by HPLC and the fractions containing NAM and NAD+ were analyzed by ESI-MS and MALDI-MS respectively. Peak ratio (^16O/^18O) was used to quantitate NAM and NAD+ amounts in each sample. […] According to our measurement, the NAD+ level in NAR treated cells is 3886.6 pmoL/mg cell protein and nucleic acid content, and the NAD+ in control cells is only 1782.2 pmoL/mg cell protein and nucleic acid content. Cell protein and nucleic acid content were measured separately (see FIG. 3).

[4] = test system: Mouse embryonic stem cells; assay: Effect of NAR on mms mediated cell death (trypan blue counting); format: cell-based; settings: media supplemented with NAR 1 mM, mms 1 mM (FIG. 2)
Experimental: 1000 units/mL], named from #1 to #7. […] Mms (200 mM) was added to flask #2, 3, 4, 5, 6, 7 to make final concentration as 1 mM. Cell flask #1 is kept as a control, and used for passage. After 3 hrs incubation, fresh media was changed for flask #4, 5, 6, 7. And Cell #2, and 3 are harvested. After 6 hrs treatment of mms, Cell #4, 5 are harvested. And Cell #6, 7 are harvested at 9 hrs treatment of mms. The harvest cells (living ones) are counted for the percentage of death with trypan blue (see FIG. 2).

Hela cells = assay: NAD+ content in cells after treatment with nicotinate riboside derivatives (HPLC, MALDI-MS with 18O-NAD+ standard); format: cell-based; settings: for 16O-NAD+ / [NAD+]/10^6 cell: 24 hrs; for [NAD+]/10^6 cell: control 618
Experimental: Synthesized compounds (NAR: Nicotinic acid riboside, O-ethyl-NR: ethyl-nicotinate riboside, Intermediate: TAENR, triacetyl-ethyl-nicotinate riboside, See FIG. 10) were added to the cells separately after 24 hours (no compound added for control). The cells were then incubated for another 24 hrs before harvest. Cells were trypsinized and an aliquot removed for counting. […] After mixing thoroughly, samples were pelleted and then neutralized with NaOH to make pH=7˜8. Samples were then centrifuged for 3 minutes and the supernatant (100 uL) was injected onto a C-18 column (Hitachi HPLC L2130 pump L2450 diode array detector) and separated to isolate the peak containing NAD+. The elution was collected during the NAD+ peak and the solution frozen and lyophilized.

[5] = format: physicochemical
Experimental: The synthesis of nicotinoyl riboside compounds was initiated with the preparation of a preferred intermediate, ethyl 1-[3,4-diacetyloxy-5-(acetyloxymethyl)oxolan-2-yl]-pyridine-3-carboxylate. Nicotinic acid riboside O-alkyl derivatives were prepared from there. Refluxing of the protected sugar, 1,2,3,5-tetra-O-acetyl-β-D-ribofuranose with ethyl nicotinate (1.2 equiv.) in methylene chloride under the catalysis of TMSOTf (1 equiv.) stereoselectively formed β-isomer in good yield (>90%). One of the advantages for this method is that there is no need to go through the silylation of nicotinamide. After evaporation of the solvent, ethyl 1-[3,4-diacetyloxy-5-(acetyloxymethyl)oxolan-2-yl]-pyridine-3-carboxylate could be used directly for the next step. […] Extraction of ethyl acetate from water layer could get rid of most non-polar side products and give 95% of pure products according to TLC. Ethyl 1-[3,4-diacetyloxy-5-(acetyloxymethyl)oxolan-2-yl]-pyridine-3-carboxylate was also treated with NaOCH3/MeOH at −20° C. to form O-methyl nicotinate riboside. Other O-alkyl nicotinate ribosides were prepared similarly. O-Alkyl nicotinate ribosides can be hydrolyzed with esterase (from porcine liver, sigma) at pH=7.0 to afford clean nicotinic acid riboside. Reverse HPLC was used to detect and purify products.

CC[C@H](C)C(=O)O[C@H]1C[C@@H](C)C=C2C=C[C@H](C)[C@H](CC[C@@H]3C[C@@H](O)CC(=O)O3)[C@H]21 [statin, lovastatin, reference compound]
pIC50 ([1]; determined by MTT assay): 6.67
pIC50 ([1]; determined by cell counting): 6.61
cell viability at the highest statin concentration ([1]; statin 10 μM, no NR group): almost completely non-viable

NC(=O)c1ccc[n+]([C@@H]2O[C@H](CO)C(O)C2O)c1 (stereo partly drawn) [NAR, β-nicotinamide riboside]
culture survival after passage [2]: highest culture numbers
NAD+ level ([3]; NAR treated cells, control cells 1782.2): 3886.6 pmoL/mg cell protein and nucleic acid content
NAD+ concentration compared to the controls ([3]; NAR treated embryonic stem cells vs controls): higher concentration of NAD+; also recorded: increase of intracellular levels of nicotinamide adenine dinucleotide (NAD+)
mitigation of statin toxicity ([1]; NR 500 μM in cell media, lovastatin, 2, 4 and 7 days, listed as NR): significantly reduces the toxicity of statin; also recorded: mitigates statin toxicity in a significant way
increase of IC50 of the statin in the presence of NR ([1]; NR 500 μM, after 4 and 7 days treatment): two to three
cell viability in the NR treated group versus no NR ([1]; cell counting and MTT assay, at virtually every statin concentration): significantly higher
viable cells at the highest statin concentration ([1]; statin 10 μM, NR treated group, cell counting and MTT assay): significant percentages of viable cells remain
cell survival [4]: improvement of cell survival

O=C(O)c1ccc[n+]([C@@H]2O[C@H](CO)C(O)C2O)c1 (stereo partly drawn) [nicotinic acid riboside, β-Nicotinic acid riboside]
increase of NAD+ concentrations in cells (Hela cells; concentrations of Table 3): 60%

NC(=O)c1ccc[n+]([C@@H]2O[C@H](CO)[C@@H](O)[C@H]2O)c1 [NAR, β-nicotinamide riboside]
16O-NAD+ (Hela cells; 669 uM): 2201.2 pmol
[NAD+]/10^6 cell (Hela cells; 669 uM): 1079 pmoL
water solubility [5]: extremely water-soluble

CCOC(=O)c1ccc[n+]([C@@H]2O[C@H](COC(C)=O)C(OC(C)=O)[C@@H]2OC(C)=O)c1 (stereo partly shown) [TAENR, ethyl 1-[3,4-diacetyloxy-5-(acetyloxymethyl)oxolan-2-yl]-pyridine-3-carboxylate]
16O-NAD+ (Hela cells; 750 uM): 4432.2 pmol
[NAD+]/10^6 cell (Hela cells; 750 uM): 2052 pmoL
increase of NAD+ concentrations in cells (Hela cells; concentration of Table 3 (750 uM)): three

CCOC(=O)c1ccc[n+]([C@@H]2O[C@H](CO)[C@@H](O)[C@H]2O)c1 [O-ethyl NR, O-ethyl β-nicotinic riboside]
16O-NAD+ (Hela cells; 500 uM): 1084.1 pmol
[NAD+]/10^6 cell (Hela cells; 500 uM): 1004 pmoL
16O-NAD+ (Hela cells; 803 uM): 2622.7 pmol
[NAD+]/10^6 cell (Hela cells; 803 uM): 2242 pmoL
increase over the control NAD+ content (Hela cells; 500 micromolar): 62%
NAD+ concentration in cells (Hela cells; 500 micromolar, untreated cells 618): 1004 μmol per million cells
increase in NAD+ concentration (Hela cells; 800 micromolar): approximately three

Reference: patent publication US11633414B2, “Nicotinoyl riboside compositions and methods of use” (Cornell University, priority 2005, dated 2023)
